Assay results from patent publication US8835429B2, “Pyrimidine compounds, their use as mTOR kinase and Pl3 kinase inhibitors, and their syntheses” (Wyeth LLC, priority 2009, dated 2014).

Key:
[1] = target: PI3K-alpha (Homo sapiens, UniProt P42336); assay: PI3K-alpha fluorescence polarization assay; type: biochemical; details: 20 μM PIP2, 25 μM ATP; read-out: PI3Kα IC50
Summary of the method: (§1)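 PIP2 (diC8) and ATP substrate with PI3K in 20 mM HEPES pH 7.5, 2 mM MgCl2, 0.05% CHAPS, 0.01% βME; 1% DMSO final; 30–60 min reaction. Stopped with EDTA plus GST-GRP (70 nM) and TAMRA probe (10 nM); FP (mP) read after 30–90 min, with no-enzyme controls.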

[2] = target: PI3K-gamma (Homo sapiens, UniProt P48736); assay: PI3K-gamma fluorescence polarization assay; type: biochemical; details: 20 μM PIP2, 25 μM ATP; read-out: PI3Kγ IC50
Chain of PI3K-gamma (P48736 whole entry, species assumed): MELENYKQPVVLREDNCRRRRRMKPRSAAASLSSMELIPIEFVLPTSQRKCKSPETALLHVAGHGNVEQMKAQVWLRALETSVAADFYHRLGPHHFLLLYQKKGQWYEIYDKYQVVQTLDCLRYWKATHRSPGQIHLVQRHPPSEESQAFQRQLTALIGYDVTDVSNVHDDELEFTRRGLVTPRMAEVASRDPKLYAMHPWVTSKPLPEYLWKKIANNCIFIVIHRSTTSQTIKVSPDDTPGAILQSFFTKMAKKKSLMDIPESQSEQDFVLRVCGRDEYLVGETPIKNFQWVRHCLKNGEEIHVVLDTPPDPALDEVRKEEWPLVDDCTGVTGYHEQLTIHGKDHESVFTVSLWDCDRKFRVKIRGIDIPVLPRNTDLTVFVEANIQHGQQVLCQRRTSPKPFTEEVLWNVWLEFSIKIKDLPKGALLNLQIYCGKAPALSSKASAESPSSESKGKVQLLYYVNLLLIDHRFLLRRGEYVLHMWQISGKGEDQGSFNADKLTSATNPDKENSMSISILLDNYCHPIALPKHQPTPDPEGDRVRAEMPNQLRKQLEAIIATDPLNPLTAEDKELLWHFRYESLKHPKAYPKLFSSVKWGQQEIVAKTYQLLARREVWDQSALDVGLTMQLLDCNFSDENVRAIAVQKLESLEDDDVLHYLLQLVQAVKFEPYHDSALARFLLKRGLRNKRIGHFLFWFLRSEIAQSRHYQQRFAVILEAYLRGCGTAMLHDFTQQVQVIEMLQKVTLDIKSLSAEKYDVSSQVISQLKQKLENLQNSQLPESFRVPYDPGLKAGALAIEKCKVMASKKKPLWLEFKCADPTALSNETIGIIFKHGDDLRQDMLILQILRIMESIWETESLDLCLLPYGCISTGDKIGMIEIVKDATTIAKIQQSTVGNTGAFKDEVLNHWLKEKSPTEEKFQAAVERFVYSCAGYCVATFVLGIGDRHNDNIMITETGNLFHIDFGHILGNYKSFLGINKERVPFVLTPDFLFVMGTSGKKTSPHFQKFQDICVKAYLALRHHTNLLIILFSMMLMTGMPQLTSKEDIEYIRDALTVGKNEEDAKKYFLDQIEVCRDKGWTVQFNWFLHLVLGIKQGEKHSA
Summary of the method: as §1

[3] = system: LNCap; assay: In vitro cell growth assay (MTS), LNCap; type: cell-based; details: LNCaP, 72 h, human prostate line, three days after drug treatment
[4] = system: MDA468; assay: In vitro cell growth assay (MTS), MDA468; type: cell-based; details: 72 h, human breast line MDA468, three days after drug treatment, read-out: MDA IC50
[5] = target: mTOR (Homo sapiens, UniProt P42345); assay: mTOR enzyme assay (DELFIA, purified FLAG-TOR, His6-S6K substrate); type: biochemical; design: FLAG; details: 100 μM ATP, 2 hours
Chain of mTOR (P42345 1360-2549 limits assumed): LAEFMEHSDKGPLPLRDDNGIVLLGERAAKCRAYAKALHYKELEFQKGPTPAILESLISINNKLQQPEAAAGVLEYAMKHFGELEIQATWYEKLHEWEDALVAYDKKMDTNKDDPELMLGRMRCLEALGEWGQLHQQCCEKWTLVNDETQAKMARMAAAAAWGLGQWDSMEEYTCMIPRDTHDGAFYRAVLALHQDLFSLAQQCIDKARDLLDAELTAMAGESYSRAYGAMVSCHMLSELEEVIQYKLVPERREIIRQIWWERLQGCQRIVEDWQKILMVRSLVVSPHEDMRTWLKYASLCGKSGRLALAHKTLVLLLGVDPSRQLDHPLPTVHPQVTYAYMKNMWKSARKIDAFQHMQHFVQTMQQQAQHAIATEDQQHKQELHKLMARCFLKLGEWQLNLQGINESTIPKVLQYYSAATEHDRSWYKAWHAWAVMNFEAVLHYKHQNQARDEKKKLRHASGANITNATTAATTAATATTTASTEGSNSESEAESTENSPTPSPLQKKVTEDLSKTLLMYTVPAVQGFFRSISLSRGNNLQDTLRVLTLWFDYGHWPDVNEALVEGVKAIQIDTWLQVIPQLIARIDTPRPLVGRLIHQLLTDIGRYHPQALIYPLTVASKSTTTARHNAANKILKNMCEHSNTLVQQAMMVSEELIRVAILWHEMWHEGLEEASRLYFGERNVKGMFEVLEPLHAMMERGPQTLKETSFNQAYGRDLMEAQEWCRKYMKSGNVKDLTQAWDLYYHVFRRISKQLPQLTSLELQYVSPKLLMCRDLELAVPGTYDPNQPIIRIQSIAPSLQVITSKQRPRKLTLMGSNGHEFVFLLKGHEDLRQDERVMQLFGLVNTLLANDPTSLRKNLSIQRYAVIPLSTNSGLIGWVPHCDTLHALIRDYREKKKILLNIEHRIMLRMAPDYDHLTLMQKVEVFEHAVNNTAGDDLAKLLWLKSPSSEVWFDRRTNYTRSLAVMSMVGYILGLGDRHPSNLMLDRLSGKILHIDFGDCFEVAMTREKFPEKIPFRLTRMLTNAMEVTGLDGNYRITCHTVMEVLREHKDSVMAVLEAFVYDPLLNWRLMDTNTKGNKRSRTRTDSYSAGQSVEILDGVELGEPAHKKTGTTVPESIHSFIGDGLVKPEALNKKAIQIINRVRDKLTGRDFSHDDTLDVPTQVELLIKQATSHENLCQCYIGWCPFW

Chain of PI3K-alpha (P42336 whole entry, species assumed): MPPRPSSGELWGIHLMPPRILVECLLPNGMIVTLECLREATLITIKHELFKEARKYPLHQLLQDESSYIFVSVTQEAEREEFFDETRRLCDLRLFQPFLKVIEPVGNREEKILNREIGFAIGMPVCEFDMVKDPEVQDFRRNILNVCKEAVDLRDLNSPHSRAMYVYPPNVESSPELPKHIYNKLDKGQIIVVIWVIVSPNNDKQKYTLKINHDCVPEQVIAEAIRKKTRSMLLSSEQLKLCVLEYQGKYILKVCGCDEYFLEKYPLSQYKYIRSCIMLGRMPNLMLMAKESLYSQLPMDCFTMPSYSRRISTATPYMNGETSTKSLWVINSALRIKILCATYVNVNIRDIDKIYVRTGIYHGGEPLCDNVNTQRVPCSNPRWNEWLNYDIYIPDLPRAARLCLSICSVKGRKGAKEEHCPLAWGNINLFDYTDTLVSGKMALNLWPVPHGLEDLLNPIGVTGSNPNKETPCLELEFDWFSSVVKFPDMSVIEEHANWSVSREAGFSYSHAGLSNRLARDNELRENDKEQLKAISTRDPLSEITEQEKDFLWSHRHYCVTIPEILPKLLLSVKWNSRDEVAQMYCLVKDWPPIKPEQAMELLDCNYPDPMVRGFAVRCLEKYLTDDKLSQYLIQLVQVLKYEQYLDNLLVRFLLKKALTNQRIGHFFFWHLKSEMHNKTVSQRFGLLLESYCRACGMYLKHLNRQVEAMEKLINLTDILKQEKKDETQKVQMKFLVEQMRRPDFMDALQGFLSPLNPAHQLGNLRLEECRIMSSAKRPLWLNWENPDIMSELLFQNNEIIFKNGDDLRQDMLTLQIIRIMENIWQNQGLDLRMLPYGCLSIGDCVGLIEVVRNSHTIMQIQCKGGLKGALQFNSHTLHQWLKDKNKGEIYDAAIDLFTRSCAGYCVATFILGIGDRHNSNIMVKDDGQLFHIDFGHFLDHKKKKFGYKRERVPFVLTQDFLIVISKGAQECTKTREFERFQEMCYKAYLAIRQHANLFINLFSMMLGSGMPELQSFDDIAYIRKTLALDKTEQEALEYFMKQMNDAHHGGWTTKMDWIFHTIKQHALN
Chain of PI3K-alpha (P27986 whole entry partner, species assumed): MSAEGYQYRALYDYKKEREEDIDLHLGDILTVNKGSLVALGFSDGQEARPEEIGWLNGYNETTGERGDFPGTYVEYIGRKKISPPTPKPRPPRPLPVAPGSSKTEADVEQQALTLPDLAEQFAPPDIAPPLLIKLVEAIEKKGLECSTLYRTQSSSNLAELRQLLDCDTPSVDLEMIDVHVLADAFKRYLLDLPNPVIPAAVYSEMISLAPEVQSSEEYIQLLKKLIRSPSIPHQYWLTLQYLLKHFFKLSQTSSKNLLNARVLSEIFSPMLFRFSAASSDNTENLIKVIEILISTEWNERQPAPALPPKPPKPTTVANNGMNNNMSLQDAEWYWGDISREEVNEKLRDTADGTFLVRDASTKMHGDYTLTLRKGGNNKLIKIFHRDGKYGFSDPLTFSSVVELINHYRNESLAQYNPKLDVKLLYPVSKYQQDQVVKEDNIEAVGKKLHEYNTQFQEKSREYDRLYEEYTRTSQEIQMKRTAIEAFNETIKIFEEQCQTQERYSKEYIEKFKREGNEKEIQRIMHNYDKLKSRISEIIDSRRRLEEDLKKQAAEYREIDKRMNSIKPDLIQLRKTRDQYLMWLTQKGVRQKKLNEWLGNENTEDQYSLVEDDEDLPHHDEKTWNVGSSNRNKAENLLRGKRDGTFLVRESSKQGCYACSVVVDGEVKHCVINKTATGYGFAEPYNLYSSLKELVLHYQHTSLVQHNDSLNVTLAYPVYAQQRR

| SMILES | IC50 [1] [nM] | IC50 [2] [nM] | IC50 [3] [nM] | IC50 [4] [nM] | IC50 [5] [nM] |
| --- | --- | --- | --- | --- | --- |
| CN1CCN(c2ccc(NC(=O)Nc3ccc(-c4nc(C5CCOCC5)cc(N5C6CCC5COC6)n4)cc3)cn2)CC1 [1-[6-(4-methylpiperazin-1-yl)pyridin-3-yl]-3-{4-[4-(3-oxa-8-azabicyclo[3.2.1]oct-8-yl)-6-(tetrahydro-2H-pyran-4-yl)pyrimidin-2-yl]phenyl}urea] | 2590 | ≥ 10000 | ≤ 0.8 | 4 | 1.22 |
| CN(C)CCOc1ccc(NC(=O)Nc2ccc(-c3nc(N4C5CCC4COC5)cc(N4C[C@H]5C[C@@H]4CO5)n3)cc2)cc1 [1-{4-[2-(dimethylamino)ethoxy]phenyl}-3-(4-{4-[(1R,4R)-2-oxa-5-azabicyclo[2.2.1]hept-5-yl]-6-(3-oxa-8-azabicyclo[3.2.1]oct-8-yl)pyrimidin-2-yl}phenyl)urea] | 2740 | 9470 | 120 | 130 | 12 |
| C[C@@H]1COCCN1c1cc(N2C3CCC2COC3)nc(-c2ccc(NC(=O)Nc3ccc(OCCN(C)C)cc3)cc2)n1 [1-{4-[2-(dimethylamino)ethoxy]phenyl}-3-(4-{4-[(3R)-3-methylmorpholin-4-yl]-6-(3-oxa-8-azabicyclo[3.2.1]oct-8-yl)pyrimidin-2-yl}phenyl)urea] | 853 | 6470 | 4 | 13 | 1.55 |
| CC(C)Nc1cc(N2C3COCC2COC3)nc(-c2ccc(NC(=O)Nc3ccc(OCCN(C)C)cc3)cc2)n1 [1-{4-[2-(dimethylamino)ethoxy]phenyl}-3-{4-[4-(3,7-dioxa-9-azabicyclo[3.3.1]non-9-yl)-6-(isopropylamino)pyrimidin-2-yl]phenyl}urea] | 1760 | 8630 | 420 | 600 | 16.5 |
| CN(C)CCOc1ccc(NC(=O)Nc2ccc(-c3nc(C4CCOCC4)cc(N4C5CCC4COC5)n3)cc2)cc1 [1-{4-[2-(dimethylamino)ethoxy]phenyl}-3-{4-[4-(3-oxa-8-azabicyclo[3.2.1]oct-8-yl)-6-(tetrahydro-2H-pyran-4-yl)pyrimidin-2-yl]phenyl}urea] | 1460 | 7300 | 4 | 11 | 1.15 |
| CN(C)CCOc1ccc(NC(=O)Nc2ccc(-c3nc(NC4CCOCC4)cc(N4C5CCC4COC5)n3)cc2)cc1 [1-{4-[2-(dimethylamino)ethoxy]phenyl}-3-{4-[4-(3-oxa-8-azabicyclo[3.2.1]oct-8-yl)-6-(tetrahydro-2H-pyran-4-ylamino)pyrimidin-2-yl]phenyl}urea] | 1110 | 4540 | 30 | 48 | 7.6 |
| CN(C)CCOc1ccc(NC(=O)Nc2ccc(-c3nc(NCCS(C)(=O)=O)cc(N4C5CCC4COC5)n3)cc2)cc1 [1-{4-[2-(dimethylamino)ethoxy]phenyl}-3-{4-[4-{[2-(methylsulfonyl)ethyl]amino}-6-(3-oxa-8-azabicyclo[3.2.1]oct-8-yl)pyrimidin-2-yl]phenyl}urea] | 1860 | ≥ 10000 | 480 | 420 | 26 |
| CC(C)Nc1cc(N2C3COCC2COC3)nc(-c2ccc(NC(=O)Nc3ccc(N4CCN(C)CC4)cc3)cc2)n1 [1-{4-[4-(3,7-dioxa-9-azabicyclo[3.3.1]non-9-yl)-6-(isopropylamino)pyrimidin-2-yl]phenyl}-3-[4-(4-methylpiperazin-1-yl)phenyl]urea] | 1510 | 7890 | 280 | 320 | 14.5 |
| CC(C)Nc1cc(N2C3COCC2COC3)nc(-c2ccc(NC(=O)Nc3ccncc3)cc2)n1 [1-{4-[4-(3,7-dioxa-9-azabicyclo[3.3.1]non-9-yl)-6-(isopropylamino)pyrimidin-2-yl]phenyl}-3-pyridin-4-ylurea] | 1520 | 9240 | 280 | 400 | 5 |
| CC(C)Nc1cc(N2C3COCC2COC3)nc(-c2ccc(NC(=O)Nc3ccc(CN4CCN(C)CC4)cc3)cc2)n1 [1-{4-[4-(3,7-dioxa-9-azabicyclo[3.3.1]non-9-yl)-6-(isopropylamino)pyrimidin-2-yl]phenyl}-3-{4-[(4-methylpiperazin-1-yl)methyl]phenyl}urea] | 3160 | 6870 | 600 | 1000 | 17.5 |
| O=C(Nc1ccc(-c2nc(C3CCOCC3)cc(N3C4CCC3COC4)n2)cc1)Nc1cccnc1 [1-{4-[4-(3-oxa-8-azabicyclo[3.2.1]oct-8-yl)-6-(tetrahydro-2H-pyran-4-yl)pyrimidin-2-yl]phenyl}-3-pyridin-3-ylurea] | 2690 | ≥ 10000 | 4 | 200 | 0.32 |
| O=C(Nc1ccncc1)Nc1ccc(-c2nc(C3CCOCC3)cc(N3C4CCC3COC4)n2)cc1 [1-{4-[4-(3-oxa-8-azabicyclo[3.2.1]oct-8-yl)-6-(tetrahydro-2H-pyran-4-yl)pyrimidin-2-yl]phenyl}-3-pyridin-4-ylurea] | 1780 | 7980 | ≤ 0.8 | 4 | 0.365 |
| O=C(Nc1ccc(-c2nc(NC3CCOCC3)cc(N3C4CCC3COC4)n2)cc1)Nc1cccnc1 [1-{4-[4-(3-oxa-8-azabicyclo[3.2.1]oct-8-yl)-6-(tetrahydro-2H-pyran-4-ylamino)pyrimidin-2-yl]phenyl}-3-pyridin-3-ylurea] | 2680 | ≥ 10000 | 50 | 160 | 3.3 |
| O=C(Nc1ccncc1)Nc1ccc(-c2nc(NC3CCOCC3)cc(N3C4CCC3COC4)n2)cc1 [1-{4-[4-(3-oxa-8-azabicyclo[3.2.1]oct-8-yl)-6-(tetrahydro-2H-pyran-4-ylamino)pyrimidin-2-yl]phenyl}-3-pyridin-4-ylurea] | 2010 | 12000 | 40 | 40 | 3.8 |
| CCN(CC)c1cc(N2C3CCC2COC3)nc(-c2ccc(NC(=O)Nc3ccc(N4CCN(C)CC4)cc3)cc2)n1 [1-{4-[4-(diethylamino)-6-(3-oxa-8-azabicyclo[3.2.1]oct-8-yl)pyrimidin-2-yl]phenyl}-3-[4-(4-methylpiperazin-1-yl)phenyl]urea] | 2910 | 3390 | 132 | 560 | 5.85 |
| CS(=O)(=O)CCNc1cc(N2C3CCC2COC3)nc(-c2ccc(NC(=O)Nc3cccnc3)cc2)n1 [1-{4-[4-{[2-(methylsulfonyl)ethyl]amino}-6-(3-oxa-8-azabicyclo[3.2.1]oct-8-yl)pyrimidin-2-yl]phenyl}-3-pyridin-3-ylurea] | 1640 | ≥ 10000 | 2000 | 800 | 5 |
| CS(=O)(=O)CCNc1cc(N2C3CCC2COC3)nc(-c2ccc(NC(=O)Nc3ccncc3)cc2)n1 [1-{4-[4-{[2-(methylsulfonyl)ethyl]amino}-6-(3-oxa-8-azabicyclo[3.2.1]oct-8-yl)pyrimidin-2-yl]phenyl}-3-pyridin-4-ylurea] | 1300 | 10800 | 1000 | 400 | 4.05 |
| CN1CCN(C(=O)c2ccc(NC(=O)Nc3ccc(-c4nc(C5CCOCC5)cc(N5C6CCC5COC6)n4)cc3)cc2)CC1 [1-{4-[(4-methylpiperazin-1-yl)carbonyl]phenyl}-3-{4-[4-(3-oxa-8-azabicyclo[3.2.1]oct-8-yl)-6-(tetrahydro-2H-pyran-4-yl)pyrimidin-2-yl]phenyl}urea] | 230 | 3050 | ≤ 0.8 | 0.8 | 0.44 |
| CN1CCN(Cc2ccc(NC(=O)Nc3ccc(-c4nc(N5C6CCC5COC6)cc(N5C[C@H]6C[C@@H]5CO6)n4)cc3)cc2)CC1 [1-{4-[(4-methylpiperazin-1-yl)methyl]phenyl}-3-(4-{4-[(1R,4R)-2-oxa-5-azabicyclo[2.2.1]hept-5-yl]-6-(3-oxa-8-azabicyclo[3.2.1]oct-8-yl)pyrimidin-2-yl}phenyl)urea] | 1190 | 7590 | 180 | 190 | 9.9 |
| CN1CCN(Cc2ccc(NC(=O)Nc3ccc(-c4nc(NC5CCOCC5)cc(N5C6CCC5COC6)n4)cc3)cc2)CC1 [1-{4-[(4-methylpiperazin-1-yl)methyl]phenyl}-3-{4-[4-(3-oxa-8-azabicyclo[3.2.1]oct-8-yl)-6-(tetrahydro-2H-pyran-4-ylamino)pyrimidin-2-yl]phenyl}urea] | 931 | 2180 | 40 | 65 | 6.3 |
| CN1CCN(Cc2ccc(NC(=O)Nc3ccc(-c4nc(NCCS(C)(=O)=O)cc(N5C6CCC5COC6)n4)cc3)cc2)CC1 [1-{4-[(4-methylpiperazin-1-yl)methyl]phenyl}-3-{4-[4-{[2-(methylsulfonyl)ethyl]amino}-6-(3-oxa-8-azabicyclo[3.2.1]oct-8-yl)pyrimidin-2-yl]phenyl}urea] | 3980 | 10800 | 400 | 500 | 17.5 |
| CC(C)Nc1cc(N2C3CCC2COC3)nc(-c2ccc(NC(=O)Nc3ccc(CN(C)C)cc3)cc2)n1 [1-{4-[(dimethylamino)methyl]phenyl}-3-(4-{4-[(1-methylethyl)amino]-6-(3-oxa-8-azabicyclo[3.2.1]oct-8-yl)pyrimidin-2-yl}phenyl)urea] | 1190 | 3880 | 120 | 120 | 2.65 |
